Assay results: patent publication US9273057B2 (Bristol-Myers Squibb Company, priority 2012, dated 2016)
Structures can show the parent of a compound that is named as a salt.

Molecular target: CK2A1 (CK2α/β) (Homo sapiens, UniProt P68400)
Test: CK2 kinase assay, CK2A1 (CK2α/β)
Assay type: biochemical
Settings: Table A; read-out: CK2A1 (CK2α/β) (IC50)

CK2A1 (CK2α/β), sequence (P68400 whole entry, species assumed): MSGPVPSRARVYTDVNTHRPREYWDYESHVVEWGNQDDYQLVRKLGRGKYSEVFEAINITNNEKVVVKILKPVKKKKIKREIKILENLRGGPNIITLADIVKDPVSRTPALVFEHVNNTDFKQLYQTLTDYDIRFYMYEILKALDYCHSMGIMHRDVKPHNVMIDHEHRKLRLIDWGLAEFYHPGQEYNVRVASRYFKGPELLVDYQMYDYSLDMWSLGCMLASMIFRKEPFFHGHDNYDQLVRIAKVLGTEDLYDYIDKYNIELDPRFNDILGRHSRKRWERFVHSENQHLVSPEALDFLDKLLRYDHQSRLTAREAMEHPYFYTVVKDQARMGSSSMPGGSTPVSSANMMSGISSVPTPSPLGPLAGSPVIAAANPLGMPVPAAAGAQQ
CK2A1 (CK2α/β), sequence (P67870 whole entry partner, species assumed): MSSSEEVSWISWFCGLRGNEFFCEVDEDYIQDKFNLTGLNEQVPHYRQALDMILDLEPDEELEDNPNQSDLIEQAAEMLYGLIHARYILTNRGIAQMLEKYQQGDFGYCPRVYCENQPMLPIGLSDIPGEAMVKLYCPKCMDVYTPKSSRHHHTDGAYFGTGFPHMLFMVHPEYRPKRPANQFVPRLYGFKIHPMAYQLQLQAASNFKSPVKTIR

Row | SMILES | IC50
1 | CC(C)(O)[C@@H]1CN(c2cc(C#N)cc(Nc3nc(NC4CC4)c4ncc(C#N)n4n3)c2Cl)CCO1 [Example 37, 2-((2-chloro-5-cyano-3-((2S)-2-(1-hydroxy-1-methylethyl)-4-morpholinyl)phenyl)amino)-4-(cyclopropylamino)imidazo [2,1-f][1,2,4]triazine-7-carbonitrile] | 0.35 nM
2 | N#Cc1cc(Nc2nc(NC3CC3)c3ncc(C#N)n3n2)c(Cl)c(N2CCN(C3CN(C(=O)CN4CCOCC4)C3)CC2)c1 [Example 493, 2-{[2-chloro-5-cyano-3-(4-{1-[2-(morpholin-4-yl)acetyl]azetidin-3-yl}piperazin-1-yl)phenyl]amino}-4-(cyclopropylamino)imidazo[2,1-f][1,2,4]triazine-7-carbonitrile] | 2.03 nM
3 | CC(C)(CO)NCC(O)c1cc(C#N)cc(Nc2nc(NC3CC3)c3ncc(C#N)n3n2)c1Cl (centres unmarked) [Example 693, 2-((2-chloro-5-cyano-3-(1-hydroxy-2-((1-hydroxy-2-methylpropan-2-yl)amino)ethyl)phenyl)amino)-4-(cyclopropylamino)imidazo[2,1-f][1,2,4]triazine-7-carbonitrile] | 1.1 nM
4 | CCNc1nc(Nc2cc(C#N)cc(N3CC[C@H]4NCCO[C@@H]4C3)c2Cl)nn2c(C#N)cnc12 (racemic) [Example 371, (+/−)-2-((2-chloro-5-cyano-3-((4aR,8aR)-hexahydro-1H-pyrido[3,4-b][1,4]oxazin-6(7H)-yl)phenyl)amino)-4-(ethylamino)imidazo[2,1-f][1,2,4]triazine-7-carbonitrile] | 3.61 nM
5 | C=CC1(N2CCC(c3cc(C#N)cc(Nc4nc(NC5CC5)c5ncc(C#N)n5n4)c3Cl)CC2)COC1 [Example 379, 2-((2-chloro-5-cyano-3-(1-(3-vinyloxetan-3-yl)piperidin-4-yl)phenyl)amino)-4-(cyclopropylamino)imidazo[2,1-f][1,2,4]triazine-7-carbonitrile] | 2.61 nM
6 | C[C@@H](O)Cn1nc(C#N)c2cc(Nc3nc(NC4CC4)c4ncc(C#N)n4n3)ccc21 [Example 393, (R)-2-((3-cyano-1-(2-hydroxypropyl)-1H-indazol-5-yl)amino)-4-(cyclopropylamino)imidazo[2,1-f][1,2,4]triazine-7-carbonitrile, HCl] | 0.43 nM
7 | N#Cc1cc(Nc2nc(NC3CC3)c3ncc(C#N)n3n2)c(Cl)c(N2CCN(C(=O)OCC3(CO)COC3)CC2)c1 [Example 533, (3-(hydroxymethyl)oxetan-3-yl)methyl 4-(2-chloro-5-cyano-3-((7-cyano-4-(cyclopropylamino)imidazo[2,1-f][1,2,4]triazin-2-yl)amino)phenyl)piperazine-1-carboxylate] | 0.43 nM
8 | CCNc1nc(Nc2cc(C#N)cc(N3CC[C@@H](NC(=O)OC)[C@H](OC(=O)CNC(=O)[C@H](C)N)C3)c2Cl)nn2c(C#N)cnc12 [Example 821, (3R,4R)-1-(2-chloro-5-cyano-3-((7-cyano-4-(ethylamino)imidazo[2,1-f][1,2,4]triazin-2-yl)amino)phenyl)-4-((methoxycarbonyl)amino)piperidin-3-yl 2-((S)-2-aminopropanamido)acetate hydrochloride] | 2.72 nM
9 | N#Cc1cc(Nc2nc(NC3CC3)c3ncc(C#N)n3n2)c(Cl)c(N2CCC3C(CCN3C[C@H](O)CF)C2)c1 (stereo partly drawn) [Example 449, 2-((2-chloro-5-cyano-3-(1-((S)-3-fluoro-2-hydroxypropyl)hexahydro-1H-pyrrolo[3,2-c]pyridin-5(6H)-yl)phenyl)amino)-4-(cyclopropylamino)imidazo[2,1-f][1,2,4]triazine-7-carbonitrile] | 0.91 nM
10 | CC(=O)NCC(=O)N1CC(N2CCN(c3cc(C#N)cc(Nc4nc(NC5CC5)c5ncc(C#N)n5n4)c3Cl)CC2)C1 [Example 492, N-(2-{3-[4-(2-chloro-5-cyano-3-{[7-cyano-4-(cyclopropylamino)imidazo[2,1-f][1,2,4]triazin-2-yl]amino}phenyl)piperazin-1-yl]azetidin-1-yl}-2-oxoethyl)acetamide] | 0.64 nM
11 | CCNc1nc(Nc2cc(C#N)cc(N3CC[C@@H](NC(=O)OC)[C@H](OC(=O)[C@H](C)OP(=O)(O)O)C3)c2Cl)nn2c(C#N)cnc12 [Example 340, (S)-(3R,4R)-1-(2-chloro-5-cyano-3-((7-cyano-4-(ethylamino)imidazo[2,1-f][1,2,4]triazin-2-yl)amino)phenyl)-4-((methoxycarbonyl)amino)piperidin-3-yl 2-(phosphonooxy)propanoate] | 6 nM
12 | CCNc1nc(Nc2cc(C#N)cc(N3CC[C@@H]4[C@@H](C3)OC(=O)N4C3COC3)c2Cl)nn2c(C#N)cnc12 (racemic) [Example 838, (+/−)-2-((2-chloro-5-cyano-3-((3aR,7aR)-1-(oxetan-3-yl)-2-oxohexahydrooxazolo[5,4-c]pyridin-5(2H)-yl)phenyl)amino)-4-(ethylamino)imidazo[2,1-f][1,2,4]triazine-7-carbonitrile] | 0.54 nM
13 | CN(C)C(=O)C1CN(c2cc(C#N)cc(Nc3nc(NC4CC4)c4ncc(C#N)n4n3)c2Cl)CCN1CC(O)CF (single isomer, unassigned) [Example 315, (+/−) 4-(2-chloro-5-cyano-3-((7-cyano-4-(cyclopropylamino)imidazo [2,1-f][1,2,4]triazin-2-yl)amino)phenyl)-1-(3-fluoro-2-hydroxypropyl)-N,N-dimethyl-2-piperazinecarboxamide] | 0.37 nM
14 | COC(=O)N[C@H]1CCN(c2cc(C#N)cc(Nc3nc(NC4CC4)c4ncc(C#N)n4n3)c2Cl)C[C@H]1NC1COC1 (single isomer, unassigned) [Example 745] | 1.24 nM
15 | CC(O)CN1CCC2CN(c3cc(C#N)cc(Nc4nc(NC5CC5)c5ncc(C#N)n5n4)c3Cl)CCC21 (racemic) [Example 447, (+/−)-2-((2-chloro-5-cyano-3-(1-(2-hydroxypropyl)hexahydro-1H-pyrrolo[3,2-c]pyridin-5(6H)-yl)phenyl)amino)-4-(cyclopropylamino)imidazo[2,1-f][1,2,4]triazine-7-carbonitrile] | 0.89 nM
16 | CCNc1nc(Nc2cc(C#N)cc(N3CCC(NC(=O)OC)C(N[C@@H](C)C(N)=O)C3)c2Cl)nn2c(C#N)cnc12 (stereo in doubt) [Example 762, methyl N-[(3R,4S)-3-[(1-carbamoylethyl)amino]-1-(2-chloro-5-cyano-3-{[7-cyano-4-(ethylamino)imidazo[2,1-f][1,2,4]triazin-2-yl]amino}phenyl)piperidin-4-yl]carbamate] | 2.1 nM
17 | CN1CCN(C2CN(c3cc(C(F)F)cc(Nc4nc(NC5CC5)c5ncc(C#N)n5n4)c3Cl)C2)CC1 [Example 278, 2-((2-chloro-5-(difluoromethyl)-3-(3-(4-methyl-1-piperazinyl)-1-azetidinyl)phenyl)amino)-4-(cyclopropylamino)imidazo[2,1-f][1,2,4]triazine-7-carbonitrile] | 0.86 nM
18 | COCCN1CCC(N2CCN(c3cc(C#N)cc(Nc4nc(NC5CC5)c5ncc(C#N)n5n4)c3Cl)CC2)CC1 [Example 63, 2-((2-chloro-5-cyano-3-(4-(1-(2-methoxyethyl)-4-piperidinyl)-1-piperazinyl)phenyl)amino)-4-(cyclopropylamino) imidazo[2,1-f][1,2,4] triazine-7-carbonitrile] | 0.7 nM
19 | C[C@@H]1CN(c2cc(C#N)cc(Nc3nc(NC4CC4)c4ncc(C#N)n4n3)c2Cl)C[C@@H]1O (racemic) [Example 19, (+/−) 2-((2-chloro-5-cyano-3-((3R,4R)-3-hydroxy-4-methyl-1-pyrrolidinyl)phenyl)amino)-4-(cyclopropylamino)imidazo [2,1-f][1,2,4]triazine-7-carbonitrile] | 1.27 nM
20 | CC1(O)CN(C2CCN(c3cc(C(F)F)cc(Nc4nc(NC5CC5)c5ncc(C#N)n5n4)c3Cl)CC2)C1 [Example 257, 2-((2-chloro-5-(difluoromethyl)-3-(4-(3-hydroxy-3-methyl-1-azetidinyl)-1-piperidinyl)phenyl)amino)-4-(cyclopropylamino)imidazo[2,1-f][1,2,4]triazine-7-carbonitrile] | 0.97 nM
21 | CC(C)(O)[C@H](F)CNC1CCN(c2cc(C#N)cc(Nc3nc(NC4CC4)c4ncc(C#N)n4n3)c2Cl)CC1 [Example 137, 2-((2-chloro-5-cyano-3-(4-(((2R)-2-fluoro-3-hydroxy-3-methylbutyl)amino)-1-piperidinyI)phenyl)amino)-4-(cyclopropylamino)imidazo [2,1-f][1,2,4]triazine-7-carbonitrile] | 3.06 nM
22 | COCCC(=O)N1CCN(c2cc(C#N)cc(Nc3nc(NC4CC4)c4ncc(C#N)n4n3)c2Cl)CC1 [Example 87, 2-((2-chloro-5-cyano-3-(4-(3-methoxypropanoyl)-1-piperazinyl)phenyl)amino)-4-(cyclopropylamino) imidazo[2,1-f][1,2,4] triazine-7-carbonitrile] | 0.76 nM
23 | N#Cc1cc(Nc2nc(NC3CC3)c3ncc(C#N)n3n2)c(Cl)c(N2CCC3(CC2)CNC3)c1 [Example 792, 2-((2-chloro-5-cyano-3-(2,7-diazaspiro[3.5]nonan-7-yl)phenyl)amino)-4-(cyclopropylamino)imidazo[2,1-f][1,2,4]triazine-7-carbonitrile] | 1.03 nM
24 | COCCOC(=O)N1CCN(c2cc(C#N)cc(Nc3nc(NC4CC4)c4ncc(C#N)n4n3)c2Cl)CC1 [Example 68, 2-methoxyethyl 4-(2-chloro-5-cyano-3-((7-cyano-4-(cyclopropylamino)imidazo[2,1-f] [1,2,4]triazin-2-yl)amino)phenyl)-1-piperazinecarboxylate] | 0.67 nM
25 | CCNc1nc(Nc2cc(C#N)cc(C3CCN(C)CC3)c2Cl)nn2c(C#N)cnc12 [Example 351, 2-((2-chloro-5-cyano-3-(1-methyl-4-piperidinyl)phenyl)amino)-4-(ethylamino)imidazo[2,1-f][1,2,4]triazine-7-carbonitrile] | 0.88 nM
26 | N#Cc1cnc2c(NC3CC3)nc(Nc3cc(C(F)F)cc(N4CCN(CC(F)F)CC4)c3Cl)nn12 [Example 248, 2-((2-chloro-3-(4-(2,2-difluoroethyl)-1-piperazinyl)-5-(difluoromethyl)phenyl)amino)-4-(cyclopropylamino)imidazo[2,1-f][1,2,4]triazine-7-carbonitrile] | 3.27 nM
